Results as given in a melting point compilation (Tetko et al.; mined from patent text by program, amines drawn as free bases though some values may be those of a salt).

In the case of `CN=C1N(C)C(=O)CN1c1ccccc1`, the melting point is reported as 116 to 118 °C.
Molecule `NCCNC(=O)Cc1ccsc1` has a melting point of 89.7 to 92.1 °C.
Molecule `CCNC(=O)c1c([Si](C)(C)C)sc2c1CCCC2` has a melting point of 107 to 112 °C.
Work on `COc1cc(OC)cc(C(=O)NCC(=O)N2c3ccccc3N(Cc3ccccc3)C(=O)[C@H]3CCC[C@H]32)c1` (relative stereo) yielded a melting point of 113 to 115 °C.
`CN1CCN(c2cc(N)ccc2Br)CC1` gave a melting point of 120 to 122 °C.
Work on `CC(=O)Nc1cc(Cl)cc(Cl)c1` yielded a melting point of 182 °C.
For `CN(C(=O)CN(C(=O)CNC(=O)Nc1cccc(CCO)c1)c1ccccc1)c1ccccc1`, the melting point was 152 °C.
`CCCCc1nc2cccc(C(=O)OC)c2n1Cc1ccc(-n2cccc2C#N)cc1` showed a melting point of 128 to 129 °C.
`CCOC(=O)C(C(=O)OCC)c1cc(=O)n(-c2ccccc2)c2ccccc12` showed a melting point of 101 to 103 °C.
`Cc1c(C(F)(F)F)noc1NS(=O)(=O)c1cccc2ccccc12` showed a melting point of 154 to 155 °C.
With `COC(=O)c1cc2ccccc2c(-c2ccnc(Cl)c2)c1C(=O)OC` the melting point was 174 to 178 °C.
`COC(=O)c1ccc(S(=O)Cc2cccc(Cl)c2)cn1` (configuration not stated) showed a melting point of 75 to 77 °C.
With `Nc1ccc(CO)cc1N` the melting point was 74 to 75 °C.
`COC(=O)CC(O)CP(=O)(C#Cc1c(-c2ccc(F)cc2)c2n(c1C(C)C)CCCC2)OC` (configuration not stated) showed a melting point of 145 to 146 °C.
Molecule `CC(C)(C)C(NC(=O)c1ccc(Cl)cc1)NC(=NC#N)NCc1ccccc1Cl` (configuration not stated) has a melting point of 180 to 182 °C.
Work on `C#CCCN1CCC(O)(c2ccc(Cl)cc2)CC1` yielded a melting point of 98 to 100 °C.
With `CCC(N)=C(C(C)=O)C(=O)N(CCN(C)C)c1ccccc1` the melting point was 103 to 105 °C.
In the case of `COc1ccc(-n2nc(C(F)F)cc2-c2ccc(SC)cc2)cc1`, the melting point is reported as 100 to 101 °C.
In the case of `C#Cc1ccc(Oc2ccc(C(=O)C(=O)c3cccc(C(=O)C(=O)c4ccc(Oc5ccc(C#C)cc5)cc4)c3)cc2)cc1`, the melting point is reported as 120 to 121 °C.
For `N#Cc1ccnc(-c2nc(=O)c3ccccc3s2)c1`, the melting point was 283 to 284 °C.
In the case of `C=CCN1C(=O)C(C)(CN2CCN(c3cccc4c3OCCO4)CC2)N=C1c1cccnc1` (configuration not stated), the melting point is reported as 102 to 105 °C.
Work on `CN1CCN(c2cccc3ccc(Nc4ccc([N+](=O)[O-])cc4[N+](=O)[O-])cc23)CC1` yielded a melting point of 153 to 154 °C.
With `COCCOc1cc(N(C)S(=O)(=O)c2cccs2)c2[nH]c(C3=NCC(CC(N)=O)S3)cc2c1` (configuration not stated) the melting point was 189 to 190 °C.
Molecule `COC(=O)C(F)=CC1C(C(=O)OC(C#N)c2cccc(Oc3ccccc3)c2)C1(C)C` (configuration not stated) has a melting point of 70 °C.
`O=C(Nc1c[nH]nc1C(=O)NCCCOc1ccccc1)c1ccccn1` gave a melting point of 182 to 184 °C.
For `O=c1cc(-c2nc[nH]n2)oc2ccccc12`, the melting point was 210 °C.
Work on `CCOC(=O)CNC(=O)CS(=O)(=O)Nc1ccc(F)c(C(F)(F)F)c1` yielded a melting point of 145 to 147 °C.
`CCOC(=O)C1=C(C)NC(C)=C(C(=O)OCC)C1c1ccccc1/C=C/c1ccc(OC)cc1` showed a melting point of 179 to 181 °C.
In the case of `O=C(Nc1ccccc1Oc1ccc(Cl)cc1Cl)C1CCN(C(=O)c2ccccc2)CC1`, the melting point is reported as 176 to 177 °C.
`NS(=O)(=O)c1ccc(-n2nc(CO)cc2-c2ccc(Cl)cc2)cc1` showed a melting point of 192 to 194 °C.
`Cc1cccc(C2(O)CCC(=O)N2C)c1` (configuration not stated) gave a melting point of 128 to 130 °C.
For `COC(=O)C(OC)(c1ccccc1)c1nc(OC)cc(OC)n1` (configuration not stated), the melting point was 72 to 76 °C.
Work on `COS(=O)c1cc(C(=O)CBr)ccc1C` (configuration not stated) yielded a melting point of 123 to 125 °C.
`Cc1nc2ccnn2c(Cl)c1CCCl` gave a melting point of 87 to 88 °C.
`CC1(C)Oc2ccc(OC(F)(F)F)cc2[C@@H](NC(=O)c2ccc(C(F)(F)F)cc2[N+](=O)[O-])[C@@H]1O` gave a melting point of 60 to 65 °C.
Molecule `Cn1cc(-c2ncc(-c3ccc4cc(OCc5nnn[nH]5)ccc4c3)o2)c2ccccc21` has a melting point of 254 to 256 °C.
With `NC(=O)N(O)CCOCc1ccoc1` the melting point was 99 to 101 °C.
`COc1ccc(NC(=O)c2ccc([N+](=O)[O-])cc2)c(OC)c1` showed a melting point of 172 to 174 °C.
For `COc1ccc2c(c1)CCC1CCNC(=O)C(CC(=O)O)=C21` (configuration not stated), the melting point was 232 to 234 °C.
In the case of `Fc1cccc2c1C1=NCCN1C(Cl)=N2`, the melting point is reported as 281 to 285 °C.
Molecule `O=C(CCc1ccccc1)Nc1ccc([N+](=O)[O-])cc1` has a melting point of 117 to 119 °C.
`CCOC(=O)c1ncn2c1CN=C(c1ccccc1F)c1cc(C#C[Si](C)(C)C)ccc1-2` gave a melting point of 196 to 198 °C.
Molecule `CCOC(=O)c1cn(-c2ccccn2)c2oc(CN3CCOCC3)cc2c1=O` has a melting point of 192 to 195 °C.
`CC(C)(C)c1ccc(CBr)cc1NC(=O)CC1c2ccccc2Oc2ccccc21` gave a melting point of 229 to 231 °C.
`CCc1csc(-c2ccc3c(c2)C=C(C(=O)Nc2ccc(CN(C)C4CCOCC4)cc2)CCN3C)c1` gave a melting point of 139 to 141 °C.
With `CCCn1nc2c(N)nc3ccccc3c2c1CC(C)C` the melting point was 199 to 200 °C.
Work on `CCCCc1nc2cccc(C(=O)OC)c2n1Cc1ccc(-c2ccccc2N2CC(=O)NC2=O)cc1` yielded a melting point of 149 to 151 °C.
For `CCOC(=O)C(O)c1ccc(-n2cccc2)cc1` (configuration not stated), the melting point was 126 to 128 °C.
In the case of `Nc1cc(-c2cccnc2)ccc1S(N)(=O)=O`, the melting point is reported as 240 to 243 °C.
Molecule `N#Cc1ccc(OCCc2coc(-c3ccccc3)n2)cc1` has a melting point of 115 °C.
With `NNc1nnc(C(=O)C(F)(F)F)nc1-c1ccccc1` the melting point was 193 to 194 °C.
Work on `O=[N+]([O-])c1ccc2nc(Cl)[nH]c2c1` yielded a melting point of 235 to 237 °C.
Work on `Nc1nc2ccccc2c2c1nc(CO)n2CC1(O)CCOCC1` yielded a melting point greater than 250 °C.
For `CCOC(=O)N1CCC2(CC1)Oc1ccccc1C2n1cccc1` (configuration not stated), the melting point was 132 to 133 °C.
In the case of `CC(=O)N1CCN(c2ccc(NS(C)(=O)=O)cc2)CC1`, the melting point is reported as 165 to 167 °C.
Molecule `COc1cc2nc(N3CCOCC3)n3cnnc3c2cc1OC` has a melting point of 216 to 218 °C.
`O=C1C(=O)c2ccccc2C2=C1SCC1(CCN(c3cnccn3)CC1)O2` showed a melting point of 255 to 256 °C.
Molecule `Cc1c(-c2ccccc2)oc2c(S(=O)(=O)NCCO)cccc2c1=O` has a melting point of 186 to 187 °C.
With `CC(Cc1ccc(Oc2cc(N3CCN(Cc4ccccc4)CC3)nc(Oc3ccccc3)n2)cc1)(Oc1ccccc1)C(=O)O` (configuration not stated) the melting point was 126 to 128 °C.
`Cc1ccc(-c2ccc(C(=O)Nc3ccc4cc(CN5CCCC5)cnc4c3)cc2)cc1` showed a melting point of 206 to 208 °C.
With `Nc1cc(N2CCCC2)c2c(Cl)ccc3c2c1C(=O)N(O)C3=O` the melting point was 211 to 213 °C.
With `CCOC(=O)N1CCC(C(=O)Cl)CC1` the melting point was 96 to 98 °C.
`O=C(O)Cc1ccc(OCCC(c2ccccc2)(c2ccccc2)c2ccccc2)cc1` showed a melting point of 148 to 149 °C.
`Cc1nn(-c2cc(Sc3ccc(O)cc3)c(Cl)cc2Cl)c(=O)n1C(F)F` gave a melting point of 228 to 229 °C.
`COC(=O)Cc1cc(Br)c(Sc2ccc(OC)c(C(C)C)c2)c(Br)c1` showed a melting point of 73 to 76 °C.
Molecule `CC(=O)c1c(-c2ccccc2Cl)nc2occn12` has a melting point of 121 to 122 °C.
`COC(=O)c1c(C(F)F)nc(C(F)(F)F)c(C(O)c2cccs2)c1CC(C)C` (configuration not stated) showed a melting point of 78 to 88 °C.
Work on `NC(=O)c1c(F)ccc(OCC(=O)O)c1F` yielded a melting point of 152 to 153 °C.
Molecule `COc1ccc(N2CCN(c3ccc(-n4c(C)c[nH]c4=O)cc3)CC2)cc1` has a melting point greater than 300 °C.
Molecule `Nc1nnc(-c2ccc3occ(-c4ccc(OC(F)(F)F)cc4)c3c2)o1` has a melting point of 223 to 224 °C.
For `CC1SC(c2cccnc2)N(C)C1=O` (configuration not stated), the melting point was 66.5 to 68.5 °C.
For `CN(Cc1ccco1)Cn1c(Cl)c(C#N)c(-c2cccc(Cl)c2F)c1-c1ccccc1`, the melting point was 63 to 64 °C.
Molecule `COC(=O)Cc1cccc(NCCCBr)c1` has a melting point of 129 to 130 °C.
Molecule `Oc1cc2cc3c(ccc4cc(O)c(O)cc43)nc2cc1O` has a melting point greater than 270 °C.
In the case of `COc1ccc([C@H](Sc2cc(Cc3ccccc3)ccc2N)[C@@H](O)C(=O)O)cc1`, the melting point is reported as 155 to 158 °C.
Molecule `Cn1c(/C=C/C2CC(O)CC(=O)O2)c(-c2ccccc2)c2ccccc2c1=O` (configuration not stated) has a melting point of 190 to 193 °C.
With `Cc1cc(C2=NOC(c3cc(Cl)cc(Cl)c3)(C(F)(F)F)C2)ccc1C(=O)NC(N)=O` (configuration not stated) the melting point was 201 to 205 °C.
Work on `c1cc2[nH]ncc2nc1N1CCCCC1` yielded a melting point of 217 to 218 °C.
`Cn1ccc2ccc(NC(=O)/C=C/c3ccc(C(C)(C)C)cc3)cc21` gave a melting point of 95 °C.
With `CC1(C)CCN(C(=O)NCc2ccccc2)c2cc(C#N)ccc21` the melting point was 114 to 115 °C.
With `COC(=O)CC1C(=O)Nc2cc(S(N)(=O)=O)sc2S1(=O)=O` (configuration not stated) the melting point was 223 to 225 °C.
Molecule `OCc1ccc2c(c1)COC2c1ccc(F)cc1` (configuration not stated) has a melting point of 101 to 104 °C.
In the case of `CCn1nc2c(N)nc3ccccc3c2c1CCCCOC(C)=O`, the melting point is reported as 128 to 129 °C.
For `O=C([C@H]1CC[C@H](Nc2ncc3ncnc(Nc4ccc(F)c(Cl)c4)c3n2)CC1)N1CCCC1`, the melting point was 206 to 209 °C.
In the case of `Oc1ccc(-c2cc3cc(O)cc(-c4nnco4)c3o2)cc1`, the melting point is reported as 260 to 266 °C.
In the case of `Cc1nccn1CCC(=O)c1nn2c3c(cccc13)CCC2`, the melting point is reported as 133 to 134 °C.
In the case of `COP(=O)(Cc1cc(C(C)(C)C)c(O)c(C(C)(C)C)c1)c1ccccc1` (configuration not stated), the melting point is reported as 112 to 114 °C.
For `N#CCCNC(=O)c1cccc(-c2ccc3c(c2)N(c2cc(Cl)cc(Cl)c2)CC3)c1`, the melting point was 196 to 197 °C.
In the case of `Fc1ccc(-c2nc3ccccc3n3cncc23)cc1`, the melting point is reported as 214 to 215 °C.
Work on `CCOC(=O)c1cccc(-c2c(OC)cccc2C(=O)O)c1` yielded a melting point of 128 to 129 °C.
In the case of `Cc1c(C2=CCC(Cc3ccccc3)(N(C)C)CC2)[nH]c2ccc(C#N)cc12` (configuration not stated), the melting point is reported as 120 to 123 °C.
In the case of `CN(C)c1ccc(NC(=O)C2C(=O)C3CC[C@](C)(C2=O)C3(C)C)cc1` (some centres not stated), the melting point is reported as 93 to 95 °C.
In the case of `Cc1c(O)ccc2c(=O)c(-c3ccccc3O)coc12`, the melting point is reported as 196 to 198 °C.
With `CCOC(=O)CN1CCN(Cc2cnc(-c3cc4cccc(N(C)S(=O)(=O)c5cccs5)c4[nH]3)s2)CC1` the melting point was 167 to 169 °C.
For `CS(=O)(=O)c1ccc2c(c1)C(=O)CC1(CCN(C(=O)c3ccccc3)CC1)O2`, the melting point was 155 to 157 °C.
`N#CC(=NO)C1CCCOC1` (configuration not stated) showed a melting point of 46 to 50 °C.
In the case of `C=CCN(c1ccccc1CC(=O)O)c1c(Cl)cccc1Cl`, the melting point is reported as 148 °C.
`CNC#CCC1=Cc2ccccc2Sc2ccc(Cl)cc21` showed a melting point of 92 to 94 °C.
For `C=CCSC(=S)N1Cc2[nH]c3ccccc3c2CC1C(=O)O` (configuration not stated), the melting point was 161 to 162 °C.
In the case of `COc1cc2ccc(C(=O)O)cc2cc1OC`, the melting point is reported as 245 to 247 °C.
`CC(c1ccc(OCC(=O)Nc2ccc(-c3ccc(Cl)cc3)cc2)cc1)N1CCCC1` (configuration not stated) showed a melting point of 156 to 158 °C.
Work on `O=C1CCCc2ccc(OCCCCN3CCN(c4cccc5c4CCC5)CC3)nc2N1` yielded a melting point of 207 to 208 °C.
